Assay results as given in patent US20250152719A1, “FUSED IMIDE DERIVATIVE” (Chia Tai Tianqing Pharmaceutical Group Co., Ltd., priority 2021, published 2025).

Columns and labels:
EGFR kinase = EGFR kinase (Homo sapiens (Human), UniProt P00533); assay: Inhibitory activity on EGFR kinase; assay type: biochemical; details: ATP 5 μM
Experimental: (§1) The Assay Buffer was prepared, and the composition of the Assay Buffer was 50 mM Hepes (Gibco, 15630), 10 mM MgCl2, 2 mM DTT, 1 mM EGTA, and 0.010% Tween 20. EGFR kinase (Carna, 08-115), ATP (Sigma, A7699), and ULight-poly GT (PE, TRF0100-M) working solutions were prepared using the Assay Buffer. EDTA and Eu-labeled anti-phosphotyrosine (PT66) antibody (PE, AD0069) working solutions were prepared using the Detection Buffer. 6 μL of EGFR kinase at the corresponding concentration (final concentration: 0.006 ng/μL) was added to the compound groups and the control group, while 6 μL of the Assay Buffer was added to the blank group, and then the compounds (with the concentration set to 1000 nM at the maximum, 4-fold dilution, 7 concentration gradients) were added using a nanoliter pipettor. The mixture was incubated at room temperature for 30 min, and then 4 μL of the mixture of ATP (final concentration: 5 μM) and ULight-poly GT (final concentration: 100 nM) was added. After incubation at room temperature for 2 h, 5 μL of EDTA (final concentration: 10 mM) was added to stop the reaction, and finally 5 μL of antibody (final concentration: 2 nM) was added. After incubation at room temperature for 1 h, signal values were detected at 665/615 nM, the four-parameter analysis was performed, the dose-response curves were fit, and IC50 was calculated.

BTK(C481S) kinase = BTK(C481S) kinase (Homo sapiens (Human), UniProt Q06187, C481S); assay: Inhibitory activity on BTK(C481S) kinase; assay type: biochemical; details: ATP 10 μM
Experimental: as §1, with “20. BTK(C481S)” for “20. EGFR”, “kinase (Carna Biosciences, 08-547),” for “kinase (Carna, 08-115),”, “of BTK(C481S)” for “of EGFR”, “concentration: 0.005” for “concentration: 0.006”, “concentration: 10” for “concentration: 5”

BTK = BTK (Homo sapiens (Human), UniProt Q06187); assay: BTK degradation in OCI-LY10 cells (Total-BTK HTRF kit); assay type: cell-based; details: 24 (or 6) h incubation; for DC50: DC50 = concentration when degradation rate reaches 50%, read-out: OCI-LY10 cell BTK degradation DC50; for Dmax: OCI-Ly10, OCI-LY10 cells
In short: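 OCI-LY10 cells seeded overnight, then treated with compound at 100 nM-0.098 nM in duplicate for 24 (or 6) h. Lysates probed by Total-BTK HTRF (d2/Eu cryptate antibodies, overnight, room temperature), read at 665/620 nm; DC50 and Dmax from four-parameter dose-response fits.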

BTK(WT) kinase = BTK(WT) kinase (Homo sapiens (Human), UniProt Q06187); assay: Inhibitory activity on BTK(WT) kinase; assay type: biochemical; details: ATP 10 μM
Experimental: The Assay Buffer was prepared, and the composition of the Assay Buffer was 50 mM Hepes (Gibco, 15630), 10 mM MgCl2, 2 mM DTT, 1 mM EGTA, and 0.010% Tween 20. BTK(WT) kinase (Life, PR5442A), ATP (Sigma, A7699), and ULight-poly GT (PE, TRF0100-M) working solutions were prepared using the Assay Buffer. EDTA and Eu-labeled anti-phosphotyrosine (PT66) antibody (PE, AD0069) working solutions were prepared using the Detection Buffer (PE, CR97-100). 6 μL of BTK(WT) kinase at the corresponding concentration (final concentration: 0.003 ng/L) was added to the compound groups and the control group, while 6 μL of the Assay Buffer was added to the blank group, and then the compounds (with the concentration set to 1000 nM at the maximum, 4-fold dilution, 7 concentration gradients) were each added using a nanoliter pipettor. The mixture was incubated at room temperature for 30 min, and then 4 μL of the mixture of ATP (final concentration: 10 μM) and ULight-poly GT (final concentration: 100 nM) was added. After incubation at room temperature for 2 h, 5 μL of EDTA (final concentration: 10 mM) was added to stop the reaction, and finally 5 μL of antibody (final concentration: 2 nM) was added. After incubation at room temperature for 1 h, signal values were detected at 665/615 nM, the four-parameter analysis was performed, the dose-response curves were fit, and IC50 was calculated.

OCI-LY10 cells = assay: Inhibitory activity on OCI-LY10 cell proliferation (CCK-8); assay type: cell-based
In short: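 Cells seeded at 1×10^5 cells/mL and incubated overnight were exposed in duplicate to final compound concentrations of 5000 nM-0.31 nM for 72 h. CCK-8 was added for 2.5 h and absorbance read at 450 nm. IC50 was obtained from four-parameter dose-response fits.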

[1] = Homo sapiens, OCI-Ly10, 72 h incubation

Chain of BTK(C481S) kinase (Q06187 whole entry C481S): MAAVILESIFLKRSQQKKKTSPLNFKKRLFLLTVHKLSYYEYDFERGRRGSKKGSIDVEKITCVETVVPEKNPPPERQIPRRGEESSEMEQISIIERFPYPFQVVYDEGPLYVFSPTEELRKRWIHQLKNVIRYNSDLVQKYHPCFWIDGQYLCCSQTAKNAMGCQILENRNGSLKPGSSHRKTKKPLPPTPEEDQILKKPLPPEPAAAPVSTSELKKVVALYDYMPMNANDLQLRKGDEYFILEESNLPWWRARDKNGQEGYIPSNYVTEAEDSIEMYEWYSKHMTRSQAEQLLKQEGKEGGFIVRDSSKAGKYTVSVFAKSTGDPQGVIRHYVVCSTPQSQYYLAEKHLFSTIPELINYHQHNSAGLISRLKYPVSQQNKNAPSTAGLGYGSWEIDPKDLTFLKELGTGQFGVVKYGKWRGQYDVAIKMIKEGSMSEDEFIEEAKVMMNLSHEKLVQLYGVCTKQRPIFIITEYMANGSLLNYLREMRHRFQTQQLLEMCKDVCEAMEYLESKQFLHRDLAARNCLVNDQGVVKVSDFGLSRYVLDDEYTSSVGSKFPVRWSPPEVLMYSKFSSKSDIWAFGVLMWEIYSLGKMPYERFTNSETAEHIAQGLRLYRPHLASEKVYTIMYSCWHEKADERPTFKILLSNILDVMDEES
Chain of BTK(WT) kinase (Q06187 whole entry): as the sequence (Q06187 whole entry C481S) above, with S481C counted along it
Chain of BTK (Q06187 whole entry): as the sequence (Q06187 whole entry C481S) above, with S481C counted along it
Chain of EGFR kinase (P00533 669-1210): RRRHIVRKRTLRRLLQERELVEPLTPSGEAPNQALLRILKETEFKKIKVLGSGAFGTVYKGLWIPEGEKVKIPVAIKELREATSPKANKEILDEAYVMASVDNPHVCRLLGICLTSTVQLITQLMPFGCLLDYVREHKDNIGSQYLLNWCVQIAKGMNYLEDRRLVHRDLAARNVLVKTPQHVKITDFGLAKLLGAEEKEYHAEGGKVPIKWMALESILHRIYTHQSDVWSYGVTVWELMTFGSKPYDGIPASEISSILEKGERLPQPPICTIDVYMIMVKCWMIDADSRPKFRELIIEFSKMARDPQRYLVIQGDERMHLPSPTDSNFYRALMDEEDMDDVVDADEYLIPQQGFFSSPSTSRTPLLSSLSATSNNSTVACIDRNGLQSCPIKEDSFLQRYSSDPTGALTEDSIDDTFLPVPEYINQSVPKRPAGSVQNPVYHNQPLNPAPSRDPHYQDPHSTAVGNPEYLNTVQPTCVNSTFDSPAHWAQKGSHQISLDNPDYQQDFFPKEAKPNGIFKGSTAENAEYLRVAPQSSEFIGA

| Compound | IC50 (EGFR kinase) [nM] | IC50 (BTK(C481S) kinase) [nM] | DC50 (BTK; OCI-LY10 cells) [nM] | Dmax (BTK; maximum degradation rate) [%] | IC50 (BTK(WT) kinase) [nM] | IC50 (OCI-LY10 cells; [1]) [nM] | BTK degradation in OCI-LY10 cells Dmax (BTK; OCI-LY10 cells, maximum degradation rate) [%] | IC50 (OCI-LY10 cells; 72 h incubation) [nM] |
| --- | --- | --- | --- | --- | --- | --- | --- | --- |
| CN1CCN([C@@H]2CCCN(c3cnc(C(N)=O)c(Nc4ccc(N5CCC(CN6CCc7ccc8c(C9CCC(=O)NC9=O)noc8c7CC6)CC5)cc4)n3)C2)C1=O (some centres unmarked) [Compound 27] | 109 | 9 | < 0.098 | 97 | 0.96 | < 0.31 |  |  |
| CN1CCN([C@@H]2CCCN(c3cnc(C(N)=O)c(Nc4ccc(C5CCN(C6CN(c7ccc8c(C9CCC(=O)NC9=O)noc8c7)C6)CC5)cc4)n3)C2)C1=O (some centres unmarked) [Compound 10] | 3320 | 19.6 | < 0.098 | 99 | 7.1 | < 0.31 |  |  |
| CN1CCN([C@@H]2CCCN(c3cnc(C(N)=O)c(Nc4ccc(C5CCC(N6Cc7ccc8c(C9CCC(=O)NC9=O)noc8c7C6)CC5)cc4)n3)C2)C1=O (some centres unmarked) [Compound 33] | 785 | 22 |  |  | 11 |  | >90 | < 0.31 |
